In general, IC50 refers to the point on the concentration scale where inhibition reaches its midpoint. A high value points to lower potency.

The structures appear in SMILES notation.

This test addresses myeloperoxidase (MPO) (Homo sapiens, UniProt P05164). In words: guaiacol/H2O2 peroxidase activity assay with purified human MPO. In kind it is biochemical.

myeloperoxidase (MPO), sequence (P05164 165-273): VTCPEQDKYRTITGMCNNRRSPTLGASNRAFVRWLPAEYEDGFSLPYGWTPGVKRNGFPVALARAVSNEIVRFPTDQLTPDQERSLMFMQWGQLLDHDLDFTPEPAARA
myeloperoxidase (MPO), sequence (P05164 279-745): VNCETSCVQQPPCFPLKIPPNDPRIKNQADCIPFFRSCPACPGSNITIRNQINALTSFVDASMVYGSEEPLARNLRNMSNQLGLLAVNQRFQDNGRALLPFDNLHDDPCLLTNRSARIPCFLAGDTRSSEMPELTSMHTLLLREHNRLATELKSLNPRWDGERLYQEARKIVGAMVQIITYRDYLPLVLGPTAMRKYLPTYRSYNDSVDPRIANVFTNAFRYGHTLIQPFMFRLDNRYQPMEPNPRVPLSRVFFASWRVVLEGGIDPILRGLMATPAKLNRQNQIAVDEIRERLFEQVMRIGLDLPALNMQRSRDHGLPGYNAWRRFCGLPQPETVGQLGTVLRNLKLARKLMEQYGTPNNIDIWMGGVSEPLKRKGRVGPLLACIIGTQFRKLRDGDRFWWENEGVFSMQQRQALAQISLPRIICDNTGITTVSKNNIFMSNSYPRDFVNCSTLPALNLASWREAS

`O=C(N[C@H]1COC(=O)[C@@H](NC(=O)c2cccc(O)c2O)COC(=O)[C@@H](NC(=O)c2cccc(O)c2O)COC1=O)c1cccc(O)c1O` [enterobactin]: the half-inhibitory concentration (IC50) was around 1000 nM.

The values above are taken from paper PMC6336494 (Nature communications, 2015).
